{"source": "ChEMBL document CHEMBL2010784", "about": "(ACS Med Chem Lett, 2011)", "data": [{"system": "Vaccinia virus", "test": "Antiviral activity against Vaccinia virus Lederle infected in HEL cells assessed as inhibition of viral-induced cytopathogenicity", "assay_type": "functional, organism-based", "settings": "Orthopoxvirus vaccinia", "units": {"EC50": "µM"}, "values": [{"compound": "C#C[C@]1(CO)S[C@@H](n2ccc(N)nc2=O)C[C@@H]1O", "EC50": 6.5}, {"compound": "C#C[C@]1(CO)S[C@@H](n2cnc3c(N)ncnc32)C[C@@H]1O", "EC50": 52}, {"compound": "C#C[C@]1(CO)S[C@@H](n2cnc3c(=O)[nH]c(N)nc32)C[C@@H]1O", "EC50": 27}, {"compound": "Nc1nc2c(ncn2COC(CO)CO)c(=O)[nH]1", "note": "[GANCICLOVIR]", "EC50": 100}]}]}
